Laboratory results as given in US12528814B2, “Bifunctional degraders of interleukin-1 receptor-associated kinases and therapeutic use thereof” (NURIX THERAPEUTICS, INC., priority 2020, dated 2026).

Experiments:
IRAK4 [1] = biological target: T1, IRAK4 (Homo sapiens (Human), UniProt Q9NWZ3); assay: IRAK4 Biochemical HTRF Kinase Assay; conditions: Table 5; multiple runs; read-out: IRAK4 HTRF biochemical: IC50
How it was run: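 IC50 values derive from non-linear regression of sixteen concentrations in duplicate. Kinase reaction ran 90 min at ambient temperature after adding 5 μM STK-S1 substrate, 10 mM ATP and 10 mM MgCl2 (reaction-solution levels, pre-dilution to 10 μl); phospho-peptide detected by HTRF after 60 min.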
Target sequence in this assay (Q9NWZ3 whole entry, species assumed): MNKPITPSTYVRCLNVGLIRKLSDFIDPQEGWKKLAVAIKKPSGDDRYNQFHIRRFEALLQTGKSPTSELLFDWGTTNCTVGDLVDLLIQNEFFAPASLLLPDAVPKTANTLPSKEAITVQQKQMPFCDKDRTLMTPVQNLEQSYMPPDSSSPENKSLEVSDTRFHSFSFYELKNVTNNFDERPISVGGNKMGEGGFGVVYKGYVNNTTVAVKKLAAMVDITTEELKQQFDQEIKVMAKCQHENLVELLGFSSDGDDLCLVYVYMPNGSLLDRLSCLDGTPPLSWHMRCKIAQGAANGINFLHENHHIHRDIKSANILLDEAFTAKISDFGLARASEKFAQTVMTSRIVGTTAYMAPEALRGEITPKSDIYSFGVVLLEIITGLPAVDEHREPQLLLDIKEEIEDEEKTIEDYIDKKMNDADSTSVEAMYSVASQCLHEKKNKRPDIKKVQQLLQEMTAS

IRAK4 [2] = biological target: T1, IRAK4; assay: IRAK4 Degradation HiBiT Assay; conditions: multiple runs, HiBiT-tagged Jurkat cells, 4 hrs; for DC50: read-out: Cellular IRAK4 HiBiT: DC50, Table 5; for Dmax: Jurkat, read-out: Cellular IRAK4 HiBiT: Dmax, Table 5
Target sequence in this assay (Q9NWZ3 whole entry): as the sequence (Q9NWZ3 whole entry, species assumed) above

Structure (SMILES) | IC50 (IRAK4 [1]) | DC50 (IRAK4 [2]) | Dmax (IRAK4 [2])
CNc1cc(-c2ccc3cc(C#N)cnn23)ncc1-c1nnc([C@H]2CC[C@H](NC[C@@H]3CCN(c4ccc5c(c4)C(=O)N(C4CCC(=O)NC4=O)C5=O)C3)CC2)s1 (stereo partly drawn) [Example 153, 7-(5-(5-((1S,4r)-4-((((3S)-1-(2-(2,6-dioxopiperidin-3-yl)-1,3-dioxoisoindolin-5-yl)pyrrolidin-3-yl)methyl)amino)cyclohexyl)-1,3,4-thiadiazol-2-yl)-4-(methylamino)pyridin-2-yl)pyrrolo[1,2-b]pyridazine-3-carbonitrile] | 0.5 nM | 54.8 nM | 68%
CNc1cc(-c2ccc3cc(C#N)cnn23)ncc1-c1nnc([C@H]2CC[C@H](NC(=O)CC(C)(C)C(=O)N[C@H](C(=O)N3C[C@H](O)C[C@H]3C(=O)N[C@@H](C)c3ccc(-c4scnc4C)cc3)C(C)(C)C)CC2)s1 [Example 154, N4-((1r,4S)-4-(5-(6-(3-cyanopyrrolo[1,2-b]pyridazin-7-yl)-4-(methylamino)pyridin-3-yl)-1,3,4-thiadiazol-2-yl)cyclohexyl)-N1—((S)-1-((2S,4R)-4-hydroxy-2-(((S)-1-(4-(4-methylthiazol-5-yl)phenyl)ethyl)carbamoyl)pyrrolidin-1-yl)-3,3-dimethyl-1-oxobutan-2-yl)-2,2-dimethylsuccinamide] | 2.8 nM | 544 nM | 68%
CNc1cc(-c2ccc3cc(C#N)cnn23)ncc1-c1nnc(C23CCC(NC(=O)CC(C)(C)C(=O)N[C@H](C(=O)N4C[C@H](O)C[C@H]4C(=O)N[C@@H](C)c4ccc(-c5scnc5C)cc4)C(C)(C)C)(CC2)CC3)s1 [Example 155, N4-(4-(5-(6-(3-cyanopyrrolo[1,2-b]pyridazin-7-yl)-4-(methylamino)pyridin-3-yl)-1,3,4-thiadiazol-2-yl)bicyclo[2.2.2]octan-1-yl)-N1—((S)-1-((2S,4R)-4-hydroxy-2-(((S)-1-(4-(4-methylthiazol-5-yl)phenyl)ethyl)carbamoyl)pyrrolidin-1-yl)-3,3-dimethyl-1-oxobutan-2-yl)-2,2-dimethylsuccinamide] | 2.4 nM | 519 nM | 90%
CNc1cc(-c2ccc3cc(C#N)cnn23)ncc1-c1nnc(N2CC3CCC(C2)N3C2CCN(C(=O)c3ccc4c(c3)C(=O)N(C3CCC(=O)NC3=O)C4)CC2)s1 (centres unmarked) [Example 162, 7-(5-(5-(8-(1-(2-(2,6-dioxopiperidin-3-yl)-3-oxoisoindoline-5-carbonyl)piperidin-4-yl)-3,8-diazabicyclo[3.2.1]octan-3-yl)-1,3,4-thiadiazol-2-yl)-4-(methylamino)pyridin-2-yl)pyrrolo[1,2-b]pyridazine-3-carbonitrile] | 0.4 nM | 10.5 nM | 110%
CNc1cc(-c2ccc3cc(C#N)cnn23)ncc1-c1nnc([C@H]2CC[C@H](N(C)C(=O)C[C@H](NC(=O)[C@@H]3C[C@@H](O)CN3C(=O)[C@@H](NC(=O)C3(F)CC3)C(C)(C)C)c3ccc(-c4scnc4C)cc3)CC2)s1 [Example 163, (2S,4R)—N—((S)-3-(((1r,4S)-4-(5-(6-(3-cyanopyrrolo[1,2-b]pyridazin-7-yl)-4-(methylamino)pyridin-3-yl)-1,3,4-thiadiazol-2-yl)cyclohexyl)(methyl)amino)-1-(4-(4-methylthiazol-5-yl)phenyl)-3-oxopropyl)-1-((S)-2-(1-fluorocyclopropane-1-carboxamido)-3,3-dimethylbutanoyl)-4-hydroxypyrrolidine-2-carboxamide] | 1 nM | 65.9 nM | 113%
CNc1cc(-c2ccc3cc(C#N)cnn23)ncc1-c1nnc(N2CC3CCC(C2)N3C2CCN(C(=O)Cc3ccc4c(c3)CN(C3CCC(=O)NC3=O)C4=O)CC2)s1 (centres unmarked) [Example 164, 7-(5-(5-(8-(1-(2-(2-(2,6-dioxopiperidin-3-yl)-1-oxoisoindolin-5-yl)acetyl)piperidin-4-yl)-3,8-diazabicyclo[3.2.1]octan-3-yl)-1,3,4-thiadiazol-2-yl)-4-(methylamino)pyridin-2-yl)pyrrolo[1,2-b]pyridazine-3-carbonitrile] | 0.4 nM | 5.64 nM | 109%
CNc1cc(-c2ccc3cc(C#N)cnn23)ncc1-c1nnc(N2CC3CCC(C2)N3C2CCN(Cc3ccc4c(c3)C(=O)N(C3CCC(=O)NC3=O)C4=O)CC2)s1 (centres unmarked) [Example 165, 7-(5-(5-(8-(1-((2-(2,6-dioxopiperidin-3-yl)-1,3-dioxoisoindolin-5-yl)methyl)piperidin-4-yl)-3,8-diazabicyclo[3.2.1]octan-3-yl)-1,3,4-thiadiazol-2-yl)-4-(methylamino)pyridin-2-yl)pyrrolo[1,2-b]pyridazine-3-carbonitrile] | 0.4 nM | 21 nM | 100%

The remaining compounds from weak to strong by IC50 (IRAK4 [1]), led by results:

IC50 (IRAK4 [1]) | DC50 (IRAK4 [2]) | Dmax (IRAK4 [2]) | Structure (SMILES)
2.1 nM | 111 nM | 116% | CNc1cc(-c2ccc3cc(C#N)cnn23)ncc1-c1nnc([C@H]2CC[C@H](NC(=O)COc3cc(-c4scnc4C)ccc3CNC(=O)[C@@H]3C[C@@H](O)CN3C(=O)[C@@H](NC(=O)C3(F)CC3)C(C)(C)C)CC2)s1 [Example 159, (2S,4R)—N-(2-(2-(((1r,4S)-4-(5-(6-(3-cyanopyrrolo[1,2-b]pyridazin-7-yl)-4-(methylamino)pyridin-3-yl)-1,3,4-thiadiazol-2-yl)cyclohexyl)amino)-2-oxoethoxy)-4-(4-methylthiazol-5-yl)benzyl)-1-((S)-2-(1-fluorocyclopropane-1-carboxamido)-3,3-dimethylbutanoyl)-4-hydroxypyrrolidine-2-carboxamide]
1.6 nM | 1210 nM | 74% | CNc1cc(-c2ccc3cc(C#N)cnn23)ncc1-c1nnc(N2CCC(NC(=O)CCC(=O)N[C@H](C(=O)N3C[C@H](O)C[C@H]3C(=O)N[C@@H](C)c3ccc(-c4scnc4C)cc3)C(C)(C)C)CC2)s1 [Example 158, N1-(1-(5-(6-(3-cyanopyrrolo[1,2-b]pyridazin-7-yl)-4-(methylamino)pyridin-3-yl)-1,3,4-thiadiazol-2-yl)piperidin-4-yl)-N4—((S)-1-((2S,4R)-4-hydroxy-2-(((S)-1-(4-(4-methylthiazol-5-yl)phenyl)ethyl)carbamoyl)pyrrolidin-1-yl)-3,3-dimethyl-1-oxobutan-2-yl)succinamide]
1.4 nM | 24.6 nM | 56% | CNc1cc(-c2ccc3cc(C#N)cnn23)ncc1-c1nnc(N2CCN(CC3CCN(c4ccc(C(=O)NC5CCC(=O)NC5=O)nc4)CC3)CC2)s1 (centres unmarked) [Example 161, 5-(4-((4-(5-(6-(3-cyanopyrrolo[1,2-b]pyridazin-7-yl)-4-(methylamino)pyridin-3-yl)-1,3,4-thiadiazol-2-yl)piperazin-1-yl)methyl)piperidin-1-yl)-N-(2,6-dioxopiperidin-3-yl)picolinamide]
1.1 nM | 85.8 nM | 97% | CNc1cc(-c2ccc3cc(C#N)cnn23)ncc1-c1nnc(N2CCN(C(=O)C[C@H](NC(=O)[C@@H]3C[C@@H](O)CN3C(=O)[C@@H](NC(=O)C3(F)CC3)C(C)(C)C)c3ccc(-c4scnc4C)cc3)CC2)s1 [Example 160, (2S,4R)—N—((S)-3-(4-(5-(6-(3-cyanopyrrolo[1,2-b]pyridazin-7-yl)-4-(methylamino)pyridin-3-yl)-1,3,4-thiadiazol-2-yl)piperazin-1-yl)-1-(4-(4-methylthiazol-5-yl)phenyl)-3-oxopropyl)-1-((S)-2-(1-fluorocyclopropane-1-carboxamido)-3,3-dimethylbutanoyl)-4-hydroxypyrrolidine-2-carboxamide]
1 nM | 17.6 nM | 104% | CNc1cc(-c2ccc3cc(C#N)cnn23)ncc1-c1nnc(N2CCC(C(=O)N3CCN(Cc4ccc5c(c4)C(=O)N(C4CCC(=O)NC4=O)C5=O)CC3)CC2)s1 (centres unmarked) [Example 157, 7-(5-(5-(4-(4-((2-(2,6-dioxopiperidin-3-yl)-1,3-dioxoisoindolin-5-yl)methyl)piperazine-1-carbonyl)piperidin-1-yl)-1,3,4-thiadiazol-2-yl)-4-(methylamino)pyridin-2-yl)pyrrolo[1,2-b]pyridazine-3-carbonitrile]
0.9 nM | > 6980 nM |  | CNc1cc(-c2ccc3cc(C#N)cnn23)ncc1-c1nnc([C@H]2CC[C@H](NC(=O)CCC(=O)N[C@H](C(=O)N3C[C@@H](O)C[C@H]3C(=O)NCc3ccc(-c4scnc4C)cc3)C(C)(C)C)CC2)s1 [Example 151, N1-((1r,4S)-4-(5-(6-(3-cyanopyrrolo[1,2-b]pyridazin-7-yl)-4-(methylamino)pyridin-3-yl)-1,3,4-thiadiazol-2-yl)cyclohexyl)-N4—((S)-1-((2S,4S)-4-hydroxy-2-((4-(4-methylthiazol-5-yl)benzyl)carbamoyl)pyrrolidin-1-yl)-3,3-dimethyl-1-oxobutan-2-yl)succinamide]
0.9 nM | 63 nM | 113% | CNc1cc(-c2ccc3cc(C#N)cnn23)ncc1-c1nnc([C@H]2CC[C@H](NC(=O)C3CCN(c4ccc5c(c4)C(=O)N(C4CCC(=O)NC4=O)C5=O)CC3)CC2)s1 (some centres unmarked) [Example 152, N-((1r,4r)-4-(5-(6-(3-cyanopyrrolo[1,2-b]pyridazin-7-yl)-4-(methylamino)pyridin-3-yl)-1,3,4-thiadiazol-2-yl)cyclohexyl)-1-(2-(2,6-dioxopiperidin-3-yl)-1,3-dioxoisoindolin-5-yl)piperidine-4-carboxamide]
0.8 nM | 15.5 nM | 109% | CNc1cc(-c2ccc3cc(C#N)cnn23)ncc1-c1nnc(N2CCN(C(=O)N3CCN(Cc4ccc5c(c4)C(=O)N(C4CCC(=O)NC4=O)C5=O)CC3)CC2)s1 (centres unmarked) [Example 156, 7-(5-(5-(4-(4-((2-(2,6-dioxopiperidin-3-yl)-1,3-dioxoisoindolin-5-yl)methyl)piperazine-1-carbonyl)piperazin-1-yl)-1,3,4-thiadiazol-2-yl)-4-(methylamino)pyridin-2-yl)pyrrolo[1,2-b]pyridazine-3-carbonitrile]
